Assay results: patent publication US11920157B2, “Applications of butylidenephthalide” (NATIONAL DONG HWA UNIVERSITY, priority 2016, dated 2024)

Experiments:
adipose stem cells = experiment: Production of adipose droplets in adipose cells differentiated from adipose stem cells (microscope morphology, oil red stain); assay type: cell-based; conditions: 7 days
Method: A DMEM medium (brand name: GIBCO; product number: 11965092) was used as a basic medium, and rosiglitazone (concentration: 0.5 μM, solvent: dimethyl sulfoxide (DMSO)), insulin (concentration: 170 nM, solvent: culture medium), 3-isobutyl-1-methylxanthine (IBMX; concentration: 0.5 μM, solvent: DMSO) and dexamethasone (concentration: 1 μM, solvent: DMSO) were externally added therein to provide a conditional medium.
The adipose stem cells (ADSCs) were cultivated in a DMEM/F12 medium at 37° C., 5% CO2 for 5 days. […] The results are shown in FIG. 1 (i.e., adipose stem cells (undifferentiated)).
The aforementioned pre-cultivated adipose stem cells provided by Example B1-1 were cultivated in a conditional medium provided by Example A1 at 37° C., 5% CO2 for 7 days to differentiate into adipose cells. […] The results are also shown in FIG. 1 (i.e., adipose cells (differentiated)).
(§1) The adipose cells provided by Example B1-2 were divided into seven groups and independently subjected to the following treatments:
(2) BP-2 group: cells were cultivated in a conditional medium that was externally added with butylidenephthalide (BP) (to a final concentration of 2 μg/mL) for 7 days (butylidenephthalide (BP) was purchased from ECHO CHEMICAL Co., Ltd. (Taiwan); product number: A10353);
(§2) (3) BP-10 group: cells were cultivated in a conditional medium that was externally added with butylidenephthalide (BP) (to a final concentration of 10 μg/mL) for 7 days;
(4) BP-50 group: cells were cultivated in a conditional medium that was externally added with butylidenephthalide (BP) (to a final concentration of 50 μg/mL) for 7 days;
First, the cell morphology of each group in photos taken in Examples B1-1, B1-2 and B1-3 was observed.
Thereafter, the adipose droplets of adipose stem cells (undifferentiated) provided by Example B1-1, adipose cells (differentiated) provided by Example B1-2 and adipose cells in “BP-2 group”, “BP-10 group” and “BP-50 group” provided by Example B1-3 were stained by oil red dye, and the morphology thereof was taken photos and recorded. Then, the number of adipose droplets of adipose cells in each group was quantified.

adipose cells = experiment: Oxygen consumption rate and spare respiratory capacity of adipose cells (XF24 extracellular flux analyser); assay type: cell-based; conditions: 7 days, vs differentiated adipose cells not treated by BP
Text: As described above, different from white adipose cells, the morphology of brown-like adipose cells/brown adipose cells is characterized by (i) containing numerous adipose droplets, (ii) containing a large number of mitochondria and (iii) having highly expressed uncoupling protein 1 (UCP1). […] Therefore, the number and proportion of brown-like adipose cells/brown adipose cells can be conceived by observing the number of adipose droplets in the cells, the oxygen consumption rate of adipose cells and the gene and protein expressions of UCP1.
After a medium was replaced with a fresh medium, the cells were continuously cultivated at 37° C. for 1 hour. Then, the mitochondrial biosynthesis of cells in each group was separately interfered with 25 μM oligomycin, 0.5 μM FCCP and 5 μM rotenone/antimycin A sequentially, and was continuously detected by a XF24 extracellular flux analyser (purchased from Seahorse Bioscience) prior to and during conduction of the aforementioned interference. The oxygen tension and acidification degree in the culture medium were detected by an adjusted probe to further calculate the oxygen consumption rate and spare respiratory capacity. The results of oxygen consumption rate are shown in FIG. 3A, and the results of basic oxygen consumption rate and spare respiratory capacity are shown in FIG. 3B.

UCP1 = UCP1 gene (RT-PCR) and UCP1 protein (Western blot) expression in adipose cells; assay type: cell-based; conditions: 7 days
Method: as §1
(1) Control group: cells were cultivated in a conditional medium provided by A1 for 7 days;
as §2
(5) Tofacitinib group: cells were cultivated in a conditional medium that was externally added with tofacitinib (to a final concentration of 2 μM) for 7 days (tofacitinib was purchased from UNI-ONWARD Corp. (Taiwan); product number: PZ0017);
(6) Adenosine group: cells were cultivated in a conditional medium that was externally added with adenosine (to a final concentration of 1 μM) for 7 days (adenosine was purchased from UNI-ONWARD Corp. (Taiwan); product number: A4036); and
(7) Proanthocyanidin group: cells were cultivated in a conditional medium that was externally added with proanthocyanidin (to a final concentration of 10 μM) for 7 days (adenosine was purchased from Hong Jing Co., Ltd. (Taiwan); product number: sc-344976).
The cells in each group provided by Example B1-3 were separately collected, and then the total RNA and protein of the cells were individually extracted for the following experimentation.
The total RNA was subjected to reverse transcription to provide cDNA, and then the expression of UCP1 gene of the cells in each group was analyzed by reverse transcription polymerase chain reaction (RT-PCR). The results are shown in FIG. 4A, wherein FABP4 gene was a biomarker of mature adipose cells, and thus, it was used as an internal control of adipose cells in this experimentation. The actin gene was used as an internal control of all the cells. Furthermore, the expression of UCP1 protein of the cells in each group was analyzed by Western blot. The results are shown in FIG. 4B, wherein FABP4 protein was used as an internal control of adipose cells. The actin was used as an internal control of all the cells.

C57BL/6 mice [1] = experiment: Fat browning in subcutaneous and visceral adipose tissue slices of high fat diet mice (H&E stain); assay type: in vivo; conditions: 18 weeks old, BP oral 250 mg/kg-body weight daily from week 9, cells i.v. 4×10^5 every two weeks from week 11, vs HFD group
Method: (§3) The C57BL/6 mice (purchased from National Laboratory Animal Center, Taiwan) were bred in Laboratory Animal Center of China Medical University, Taiwan (conditions: 3 mice were bred per cage; the temperature of the breeding room ranged from 20° C. to 24° C., and the relative humidity ranged from 50% to 70%; the light cycle was 12 hours; sufficient water and normal diet were supplied daily) until they were 4 weeks old. Then, the mice were randomly divided into seven groups (six mice per group), and individually subjected to the following treatment and experimentation:
(§4) (3) Oral administration of butylidenephthalide (BP) group (i.e., “HFD+BP” group): the mice were continuously fed with a high fat diet, and then simultaneously administered with butylidenephthalide (BP) by oral route at the beginning of the ninth week (dosage amount: every day, 250 mg/kg-body weight) until they were 18 weeks old. […]
B2-3. […] The weight of the subcutaneous adipose tissue and visceral adipose tissue of mice were measured and recorded, and the collected organs were kept at a temperature of −80° C. for following experimentation and analysis. […]

C57BL/6 mice [2] = experiment: Accumulation of white fat: organ appearance and weight of subcutaneous and visceral adipose tissue of high fat diet mice; assay type: in vivo
Method: as §3
(§5) (3) Oral administration of butylidenephthalide (BP) group (i.e., “HFD+BP” group): the mice were continuously fed with a high fat diet, and then simultaneously administered with butylidenephthalide (BP) by oral route at the beginning of the ninth week (dosage amount: every day, 250 mg/kg-body weight) until they were 18 weeks old.
(§6) (4) Cell infusion of adipose stem cells group (i.e., “HFD+ADSC” group): the mice were continuously fed with a high fat diet, and then simultaneously administered with adipose stem cells by intravenous injection at the beginning of the eleventh week (dosage amount: every two weeks, 4×10^5 cells suspended in 100˜150 μL of normal saline) until they were 18 weeks old (four injections in total).
(5) Oral administration of butylidenephthalide (BP) in combination with cell infusion of adipose stem cells group (i.e., “HFD+BP+ADSC” group): the mice were continuously fed with a high fat diet, then simultaneously administered with butylidenephthalide (BP) by oral route at the beginning of the ninth week (dosage amount: every day, 250 mg/kg-body weight), and further simultaneously administered with adipose stem cells by intravenous injection at the beginning of the eleventh week (dosage amount: every two weeks, 4×10^5 cells suspended in 100˜150 μL of normal saline) until they were 18 weeks old (four injections in total). […]
B2-3. […] The weight of the subcutaneous adipose tissue and visceral adipose tissue of mice were measured and recorded, and the collected organs were kept at a temperature of −80° C. for following experimentation and analysis.
To understand whether butylidenephthalide (BP) can alleviate the accumulation of white fat or not, the photos of appearances of the liver, heart, kidney, subcutaneous adipose tissue and visceral adipose tissue of mice in each group recorded in Example B2-3 are shown in FIG. 6A. The weight of subcutaneous adipose tissue and visceral adipose tissue of mice in each group recorded in Example B2-3 were respectively averaged.

[3] = Change of mouse weight in high fat diet mice; assay type: in vivo; conditions: vs HFD group
Method: as §3, §4
B2-1. In the preparation process of above Example A2, the weight change of mice was recorded every week until they were 18 weeks old.
To understand whether butylidenephthalide (BP) is effective in inhibiting weight gain or not, the average value of the recorded weights of mice in each group of Example B2-1 was obtained weekly.

C57BL/6 mice [4] = experiment: Contents of glucose, triglycerides and total cholesterol in blood of high fat diet mice; assay type: in vivo
Method: as §3, §5, §6
(5) Oral administration of butylidenephthalide (BP) in combination with cell infusion of adipose stem cells group (i.e., “HFD+BP+ADSC” group): the mice were continuously fed with a high fat diet, then simultaneously administered with butylidenephthalide (BP) by oral route at the beginning of the ninth week (dosage amount: every day, 250 mg/kg-body weight), and further simultaneously administered with adipose stem cells by intravenous injection at the beginning of the eleventh week (dosage amount: every two weeks, 4×10^5 cells suspended in 100˜150 μL of normal saline) until they were 18 weeks old (four injections in total).
(6) Cell infusion of brown-like adipose cells group (i.e., “HFD+BLC” group): the mice were fed with a high fat diet, and then simultaneously administered with brown-like adipose cells provided by Example 1 by intravenous injection at the beginning of the eleventh week (dosage amount: every two weeks, 4×10^5 cells suspended in 100˜150 μL of normal saline) until they were 18 weeks old (four injections in total).
(7) Oral administration of butylidenephthalide (BP) in combination with cell infusion of brown-like adipose cells group (i.e., “HFD+BP+BLC” group): the mice were continuously fed with a high fat diet, then simultaneously administered with butylidenephthalide (BP) by oral route (dosage amount: every day, 250 mg/kg-body weight) at the beginning of the ninth week, and further simultaneously administered with brown-like adipose cells provided by Example 1 by intravenous injection at the beginning of the eleventh week (dosage amount: every two weeks, 4×10^5 cells suspended in 100˜150 μL of normal saline) until they were 18 weeks old (four injections in total).
B2-2. After Example B2-1 was accomplished, the mice was subjected to fast for 12 hours, and then the blood of mice was collected in a serum tube by cardic blood collection. The collected blood was stand for 30 minutes, and then subjected to centrifuge at 3000 rpm, 4° C. for 10 minutes. The supernatant thus provided was collected (i.e., blood sample) and kept at a temperature of 4° C. for following experimentation and analysis.
To understand whether butylidenephthalide (BP) is effective in reducing the contents of glucose, triglycerides and total cholesterol in blood or not, the blood sample of mice in each group provided by Example B2-2 was detected by a SYSMEX K-1000 and TOSHIBA TBA200FA automatic blood analyzer to analyze the contents of glucose, triglycerides and total cholesterol in blood of mice. The results of each group were averaged. Based on the result of “HFD” group, the relative contents of glucose, triglycerides and total cholesterol of each group were calculated.

[5] = 18 weeks old, BP oral 250 mg/kg-body weight daily from week 9, cells i.v. 4×10^5 every two weeks from week 11
[6] = based on the result of HFD group (100)
[7] = high fat diet mice, 18 weeks old, fasted 12 hours, BP oral 250 mg/kg-body weight daily, cells i.v. 4×10^5 every two weeks
[8] = high fat diet mice, vs HFD group

CCCC=C1OC(=O)c2ccccc21 [BP, butylidenephthalide]
content of adipose droplets (oil red stain, FIGS. 2A, 2B) (adipose stem cells; BP 2 μg/mL, vs adipose cells not treated by BP): contained more adipose droplets
adipose droplets in cells (microscope morphology, FIG. 1) (adipose stem cells; BP 10 μg/mL in conditional medium, vs undifferentiated adipose stem cells and differentiated adipose cells): contained more adipose droplets
content of adipose droplets (oil red stain, FIGS. 2A, 2B) (adipose stem cells; BP 10 μg/mL, vs adipose cells not treated by BP and other BP groups): highest content of adipose droplets
content of adipose droplets (oil red stain, FIGS. 2A, 2B) (adipose stem cells; BP 50 μg/mL, vs adipose cells not treated by BP): contained more adipose droplets
oxygen consumption rate (FIG. 3A) (adipose cells; BP 2 μg/mL): higher oxygen consumption rate
spare respiratory capacity (FIG. 3B) (adipose cells; BP 2 μg/mL): higher
oxygen consumption rate (FIG. 3A) (adipose cells; BP 10 μg/mL): higher oxygen consumption rate
spare respiratory capacity (FIG. 3B) (adipose cells; BP 10 μg/mL): higher
oxygen consumption rate (FIG. 3A) (adipose cells; BP 50 μg/mL): higher oxygen consumption rate
spare respiratory capacity (FIG. 3B) (adipose cells; BP 50 μg/mL): higher
increments of UCP1 gene and UCP1 protein compared with known drugs (UCP1; BP 10 μg/mL vs tofacitinib 2 μM, adenosine 1 μM, proanthocyanidin 10 μM): higher than that of tofacitinib group, adenosine group and proanthocyanidin group
expression of UCP1 gene (RT-PCR, FIG. 4A) (UCP1; BP 10 μg/mL, vs control group): significantly increased
expression of UCP1 protein (Western blot, FIG. 4B) (UCP1; BP 10 μg/mL, vs control group): significantly increased
cell morphology of subcutaneous and visceral adipose tissue (FIGS. 5A, 5B) (C57BL/6 mice [1]): contained the brown adipose cells with numerous small adipose droplets
Subcutaneous adipose tissue (weight, average) (C57BL/6 mice [2]; [5]): 0.24 g
Visceral adipose tissue (weight, average) (C57BL/6 mice [2]; [5]): 0.57 g
accumulation condition of white fat in visceral (appearance, FIG. 6A) (C57BL/6 mice [2]; vs HFD group): significantly alleviated
weights of subcutaneous fat and visceral fat, in words (C57BL/6 mice [2]; vs HFD group): significantly lower
weights of mice (weight gain, 9 to 18 weeks old, FIG. 7) [3]: increased significantly less
Relative content of glucose (C57BL/6 mice [4]; [6]): 85
Relative content of total cholesterol (C57BL/6 mice [4]; [6]): 80
Relative content of triglycerides (C57BL/6 mice [4]; [6]): 84
Glucose (serum) (C57BL/6 mice [4]; [7]): 411.50 ± 43.50 mg/dL
Total cholesterol (serum) (C57BL/6 mice [4]; [7]): 157.50 ± 1.50 mg/dL
Triglycerides (serum) (C57BL/6 mice [4]; [7]): 213.50 ± 50.50 mg/dL
content of glucose in blood, in words (C57BL/6 mice [4]; [8]): significantly lower
content of total cholesterol in blood (FIG. 8C; printed as triglycerides), in words (C57BL/6 mice [4]; [8]): significantly lower
content of triglycerides in blood, in words (C57BL/6 mice [4]; [8]): significantly lower
